Measured values taken from patent US20260265259A1, “SUBSTITUTED 6-IMIDAZOPYRIDAZINE IL-17A MODULATORS AND USES THEREOF” (DICE ALPHA, INC., priority 2023, published 2026).
Read-outs that look alike come from different tables or passages of the source.

System: IL-17A/A
Test: IL-17A/A HEK-Blue cell assay
Format: cell-based
Details: IL-17A/A inhibition, HEK-Blue IL-17A reporter cell line, IL17A/A 5 ng/mL
Procedure, shortened: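 HEK 293 reporter cells expressing IL-17RA, IL-17RC and Act1, stimulated with 5 ng/mL IL17A/A or IL17A/F for 20 h alongside compound (10 μM to 27 pM, 0.1% DMSO). NFκB-driven SEAP in the medium read at A630 with Quanti-Blue; IC50 from 4-parameter fit.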

[1] = HEK-Blue, 20 h, SEAP read at A630, read-out: AA IC50
[2] = 20 hours, SEAP read at A630, read-out: AA IC50

Structure (SMILES)	IC50 [1] [nM]	IC50 [2] [nM]
CCn1nccc1C(=O)N[C@H](c1cn2nc(C[C@H]3C[C@@H](C(F)(F)F)CNC3=O)c(C3CCOC3)cc2n1)[C@H]1CCCC(F)(F)C1 (stereo partly drawn) [Compound 71]		< 100
CCn1nccc1C(=O)N[C@H](c1cn2nc(C[C@H]3C[C@@H](C(F)(F)F)CNC3=O)c(N3CCN(C)C4(CC4)C3)cc2n1)C1CCC(F)(F)CC1 [Compound 82]	< 100	
CCn1nccc1C(=O)N[C@H](c1cn2nc(C[C@H]3C[C@@H](C(F)(F)F)CNC3=O)c(C3CCCOC3)cc2n1)C1CCC(F)(F)CC1 (stereo partly drawn) [Compound 12]		< 100

Second part, the compound after the results:

IC50 [1] [nM]	IC50 [2] [nM]	Structure (SMILES)
< 100		CCn1nccc1C(=O)N[C@H](c1cn2nc(C[C@H]3C[C@@H](C(F)(F)F)CNC3=O)c([C@@H](C)N(C)CC(F)(F)F)cc2n1)C1CCC(F)(F)CC1 [Compound 110, N-((1S)-(4,4-difluorocyclohexyl)(7-(1-(methyl(2,2,2-trifluoroethyl)amino)ethyl)-6-(((3R,5R)-2-oxo-5-(trifluoromethyl)piperidin-3-yl)methyl)imidazo[1,2-b]pyridazin-2-yl)methyl)-1-ethyl-1H-pyrazole-5-carboxamide]
100 to 1000		CCn1nccc1C(=O)N[C@H](c1cn2nc(C[C@H]3C[C@@H](C(F)(F)F)CNC3=O)c(N3CCOCC3C)cc2n1)C1CCC(F)(F)CC1 (stereo partly drawn) [Compound 32]
100 to 1000		CCn1nccc1C(=O)N[C@H](c1cn2nc(C[C@H]3C[C@@H](C(F)(F)F)CNC3=O)c(C3CCN(C)C3)cc2n1)C1CCC(F)(F)CC1 (stereo partly drawn) [Compound 61]
